# From patent publication US11654096B2 (L'OREAL, priority 2017, dated 2023)
# Values joined by “and” are separate entries in the source; they are usually repeats but may differ in a detail not shown here. Identical values can stand only once.
# Legend:
# Type in all cases: cell-based
# [1] = tested on: normal human dermal fibroblasts (NHDFs); assay: Neosynthesis of sulfated GAGs by NHDFs, [35S]-sulfate incorporation; conditions: for % Control / Mean (cpm) / [35S]-Sulfate (cpm): sulfated GAGs, NHDFs; for [35S]-Sulfate (cpm): single replicates
# Procedure: (§1) The effects of the compounds on the neosynthesis of total and sulfated glycosaminoglycans (GAGs) were studied on two cell models, normal human epidermal keratinocytes (NHEKs) and normal human dermal fibroblasts (NHDFs). The effects of these compounds were evaluated by measuring: • the incorporation of [3H]-glucosamine into the total GAGs neosynthesized by NHEKs and by NHDFs, • the incorporation of [35S]-sulfate into the sulfated GAGs neosynthesized by NHEKs and by NHDFs.
# (§2) The fibroblasts were seeded into wells and cultured in culture medium for 24 hours. The medium was then replaced with culture medium containing or not containing (controt) the compounds to be tested or the reference (TGF-β at 10 ng/ml), then the cells were incubated for 72 hours with the addition of the [35S]-sulfate radioactive label (sulfated GAGs) or of the [3H]-glucosamine radioactive label (total GAGs) for the final 24 hours of incubation.
# (§3) At the end of the incubation, the glycosaminoglycans were extracted from the cells with a chaotropic buffer. The GAGs were then purified by ion exchange chromatography: adsorption of the anionic molecules on Q-Sepharose beads and desorption of the molecules of low or medium anionic nature, with a suitable solution.
# (§4) The radioactivity incorporated into the molecules left on the support (GAGs, predominantly) was measured by liquid scintillation.
# (§5) All the experimental conditions were performed in n=3.
# (§6) The inter-group comparisons were performed using Student's non-paired two-sided t-test. The statistical analyses can be interpreted if n≥5; however, for n<5, the data calculated are provided only by way of indication.
# [2] = tested on: normal human dermal fibroblasts (NHDFs); assay: Neosynthesis of total GAGs by NHDFs, [3H]-glucosamine incorporation; conditions: for effect on the neosynthesis of the total GAGs by the NHDFs (in words): tested at 10 and 100 μM; for % Control / Mean (cpm) / [3H]-glucosamine (cpm): total GAGs, NHDFs; for [3H]-glucosamine (cpm): single replicates
# Procedure: as §1, §2, §3, §4, §5, §6
# [3] = tested on: normal human epidermal keratinocytes (NHEKs); assay: Neosynthesis of total GAGs by NHEKs, [3H]-glucosamine incorporation; conditions: for % Control / Mean (cpm) / [3H]-glucosamine (cpm): total GAGs, NHEKs; for [3H]-glucosamine (cpm): single replicates
# Procedure: as §1
# (§7) The keratinocytes were seeded into wells and cultured in culture medium for 24 hours. The medium was then replaced with culture medium containing or not containing (control) the compounds to be tested or the reference (4-nitrophenyl β-D-xylopyranoside at 300 μM), then the cells were incubated for 72 hours with the addition of the [3H]-glucosamine radioactive label (total GAGs) or of the [35S]-sulfate radioactive label (sulfated GAGs) for the final 24 hours of incubation.
# as §3, §4, §5, §6
# [4] = tested on: normal human epidermal keratinocytes (NHEKs); assay: Neosynthesis of sulfated GAGs by NHEKs, [35S]-sulfate incorporation; conditions: for % Control / Mean (cpm) / [35S]-Sulfate (cpm): sulfated GAGs, NHEKs; for [35S]-Sulfate (cpm): single replicates
# Procedure: as §1, §7, §3, §4, §5, §6
compound,measurement,setting,value
"Oc1cc(O)cc(/C=C/c2ccc(O[C@@H]3OC[C@@H](O)[C@H](O)[C@H]3O)cc2)c1 [Compound 2a, 4-[(E)-2-(3,5-dihydroxy-phenyl)ethenyl]phenyl β-D-xylopyranoside]",% Control,"[1]; campaign 2, 10 μM",141%
same,Mean (cpm),"[1]; campaign 2, 10 μM",795 cpm
same,[35S]-Sulfate (cpm),"[1]; campaign 2, 10 μM",765 cpm and 835 cpm and 786 cpm
same,% Control,"[1]; campaign 2, 100 μM",533%
same,Mean (cpm),"[1]; campaign 2, 100 μM",3015 cpm
same,[35S]-Sulfate (cpm),"[1]; campaign 2, 100 μM",2858 cpm and 3230 cpm and 2958 cpm
same,effect on the neosynthesis of the total GAGs by the NHDFs (in words),[2],stimulated in a concentration-dependent manner
same,% Control,"[2]; campaign 2, 10 μM",104%
same,Mean (cpm),"[2]; campaign 2, 10 μM",1624 cpm
same,[3H]-glucosamine (cpm),"[2]; campaign 2, 10 μM",1758 cpm and 1479 cpm and 1636 cpm
same,% Control,"[2]; campaign 2, 100 μM",126%
same,Mean (cpm),"[2]; campaign 2, 100 μM",1973 cpm
same,[3H]-glucosamine (cpm),"[2]; campaign 2, 100 μM",1958 cpm and 1959 cpm and 2003 cpm
same,effect on the neosynthesis of the total GAGs by the NHEKs (in words),[3]; tested at 1 and 10 μM,stimulated in a concentration-dependent manner
same,% Control,"[3]; campaign 2, 1 μM",120%
same,Mean (cpm),"[3]; campaign 2, 1 μM",10215 cpm
same,[3H]-glucosamine (cpm),"[3]; campaign 2, 1 μM",9472 cpm and 10133 cpm and 11041 cpm
same,% Control,"[3]; campaign 2, 10 μM",151%
same,Mean (cpm),"[3]; campaign 2, 10 μM",12844 cpm
same,[3H]-glucosamine (cpm),"[3]; campaign 2, 10 μM",11913 cpm and 12452 cpm and 14167 cpm
same,% Control,"[4]; campaign 2, 1 μM",114%
same,Mean (cpm),"[4]; campaign 2, 1 μM",6073 cpm
same,[35S]-Sulfate (cpm),"[4]; campaign 2, 1 μM",5974 cpm and 6365 cpm and 5879 cpm
same,% Control,"[4]; campaign 2, 10 μM",240%
same,Mean (cpm),"[4]; campaign 2, 10 μM",12748 cpm
same,[35S]-Sulfate (cpm),"[4]; campaign 2, 10 μM",11209 cpm and 13332 cpm and 13703 cpm
same,effect on the neosynthesis of the sulfated GAGs by the NHEKs (in words),[4]; tested at 1 and 10 μM,stimulated in a concentration-dependent manner
"O=[N+]([O-])c1ccc(O[C@@H]2OC[C@@H](O)[C@H](O)[C@H]2O)cc1 [4-Nitrophenyl β-D-xylopyranoside, 4-nitrophenyl β-D-xylopyranoside]",% Control,"[3]; campaign 1, 300 μM",206%
same,Mean (cpm),"[3]; campaign 1, 300 μM",26611 cpm
same,[3H]-glucosamine (cpm),"[3]; campaign 1, 300 μM",26835 cpm and 26438 cpm and 26560 cpm
same,% Control,"[3]; campaign 2, 300 μM",243%
same,Mean (cpm),"[3]; campaign 2, 300 μM",20694 cpm
same,[3H]-glucosamine (cpm),"[3]; campaign 2, 300 μM",22239 cpm and 20953 cpm and 18891 cpm
same,% Control,"[4]; campaign 1, 300 μM",922%
same,Mean (cpm),"[4]; campaign 1, 300 μM",62566 cpm
same,[35S]-Sulfate (cpm),"[4]; campaign 1, 300 μM",60267 cpm and 63396 cpm and 64036 cpm
same,% Control,"[4]; campaign 2, 300 μM",1029%
same,Mean (cpm),"[4]; campaign 2, 300 μM",54615 cpm
same,[35S]-Sulfate (cpm),"[4]; campaign 2, 300 μM, listed as 4-Nitrophenyl B-D-xylopyranoside",54440 cpm and 52841 cpm and 56564 cpm
OC[C@H]1O[C@@H](Oc2cc(O)cc(/C=C/c3ccc(O)cc3)c2)[C@H](O)[C@@H](O)[C@@H]1O [Polydatin],% Control,"[1]; campaign 1, 10 μM",96%
same,Mean (cpm),"[1]; campaign 1, 10 μM",1573 cpm
same,[35S]-Sulfate (cpm),"[1]; campaign 1, 10 μM",1523 cpm and 1479 cpm and 1718 cpm
same,% Control,"[1]; campaign 1, 100 μM",78%
same,Mean (cpm),"[1]; campaign 1, 100 μM",1287 cpm
same,[35S]-Sulfate (cpm),"[1]; campaign 1, 100 μM",1290 cpm and 1317 cpm and 1255 cpm
same,effect on the neosynthesis of the sulfated GAGs by the NHDFs (in words),[1]; tested at 10 and 100 μM,overall inhibited
same,effect on the neosynthesis of the total GAGs by the NHDFs (in words),[2],overall inhibited
same,effect on the neosynthesis of the total GAGs by the NHEKs (in words),[3]; tested at 10 and 100 μM,did not modulate
same,% Control,"[3]; campaign 1, 10 μM",102%
same,Mean (cpm),"[3]; campaign 1, 10 μM",13202 cpm
same,[3H]-glucosamine (cpm),"[3]; campaign 1, 10 μM",13405 cpm and 13192 cpm and 13010 cpm
same,% Control,"[3]; campaign 1, 100 μM",90%
same,Mean (cpm),"[3]; campaign 1, 100 μM",11660 cpm
same,[3H]-glucosamine (cpm),"[3]; campaign 1, 100 μM",12222 cpm and 11510 cpm and 11248 cpm
same,% Control,"[4]; campaign 1, 10 μM",100%
same,Mean (cpm),"[4]; campaign 1, 10 μM",6760 cpm
same,[35S]-Sulfate (cpm),"[4]; campaign 1, 10 μM",6316 cpm and 6800 cpm and 7164 cpm
same,% Control,"[4]; campaign 1, 100 μM",119%
same,Mean (cpm),"[4]; campaign 1, 100 μM",8043 cpm
same,[35S]-Sulfate (cpm),"[4]; campaign 1, 100 μM",7007 cpm and 8365 cpm and 8756 cpm
same,effect on the neosynthesis of the sulfated GAGs by the NHEKs (in words),[4]; tested at 10 and 100 μM,did not modulate
"TGF-β: reference for the fibroblast assays, at 10 ng/ml",% Control,"[1]; campaign 1, 10 ng/ml",208%
same,Mean (cpm),"[1]; campaign 1, 10 ng/ml",3433 cpm
same,[35S]-Sulfate (cpm),"[1]; campaign 1, 10 ng/ml",3397 cpm and 3492 cpm and 3411 cpm
same,% Control,"[1]; campaign 2, 10 ng/ml",257%
same,Mean (cpm),"[1]; campaign 2, 10 ng/ml",1452 cpm
same,[35S]-Sulfate (cpm),"[1]; campaign 2, 10 ng/ml",1471 cpm and 1482 cpm and 1403 cpm
same,% Control,"[2]; campaign 2, 10 ng/ml",331%
same,Mean (cpm),"[2]; campaign 2, 10 ng/ml",5167 cpm
same,[3H]-glucosamine (cpm),"[2]; campaign 2, 10 ng/ml",5999 cpm and 4173 cpm and 5328 cpm
